Experimental data reported in patent US20080207452A1, “Ionic liquids derived from herbicidal carboxylic acids and certain trialkylamines or heteroarylamines” (Dow AgroSciences LLC, priority 2007, published 2008).

Legend:
Format in all cases: in vivo
[1] = test system: Barnyardgrass Echinochloa crus-galli; experiment: Post-emergence greenhouse herbicide evaluation, barnyardgrass; details: 240 g ae/ha, 14 days after application, visual injury 0-100% vs untreated
Text: (§1) Post-Emergence Application Methods for Herbicide Evaluations.
(§2) A peat based potting soil, Metro-mix 360, was used as the soil media for this test. Metro-mix is a growing medium consisting of 35 to 45% specially processed Coconut Coir Pith, 10 to 20% horticultural grade vermiculite, 15 to 25% processed Ash Bark, 20 to 30% choice Canadian Sphagnum Peat Moss and proprietary nutrients and other ingredients. Several seeds of each species were planted in 10 cm square pots and top watered twice daily. Plant material was propagated in the greenhouse at a constant temperature of 26 to 28° C. and 50 to 60% relative humidity. Natural light was supplemented with 1000-watt metal halide overhead lamps with an average illumination of 500 μE m^−2 s^−1 photosynthetic active radiation (PAR). Day length was 16 hours. Plant material was top-watered prior to treatment and sub-irrigated after treatment. Treatments were applied with a tracksprayer manufactured by Allen Machine Works. The sprayer utilized an 8003E spray nozzle, spray pressure of 262 kPa pressure and speed of 2.8 mph (4.5 km/h) to deliver 187 L/Ha. The nozzle height was 46 cm above the plant canopy. The growth stage of the various weed species ranged from 2 to 4 leaf. Treatments were replicated 3 times. Plants were returned to the greenhouse after treatment and sub-watered throughout the duration of the experiment. Plant material was fertilized twice weekly with Hoagland's fertilizer solution. Percent visual injury assessments were made on a scale of 0 to 100% as compared to the untreated control plants (where 0 is equal to no injury and 100 is equal to complete death of the plant).

[2] = test system: Large Crabgrass Digitaria Sanguinalis; experiment: Post-emergence greenhouse herbicide evaluation, large crabgrass; details: 240 g ae/ha, 14 days after application, visual injury 0-100% vs untreated
Text: as §1, §2

Kochia Kochia scoparia = experiment: Post-emergence greenhouse herbicide evaluation, kochia; details: 560 g ae/ha, 14 days after application, visual injury 0-100% vs untreated
Text: as §1, §2

[3] = test system: Broadleaf Dock Rumex obtusifolia; experiment: Post-emergence greenhouse herbicide evaluation, broadleaf dock; details: 560 g ae/ha, 14 days after application, visual injury 0-100% vs untreated
Text: as §1, §2

[4] = test system: grapes (Vitis labrusca L.); experiment: Volatility evaluation: injury to grapes from vapor exposure to treated wheat; details: wheat sprayed at 11200 g ae/ha, 24 hour vapor exposure at 40° C., evaluated 7 days after exposure
Text: Methods for Evaluating the Volatility of 2,4-D Standards and Ionic Liquids of 2,4-D.
Four pots of wheat (Triticum aestivum L.) grown in 4 inch square pots were sprayed at 11200 g ae/ha with each of the different forms of 2,4-D. Treatments were applied with a tracksprayer manufactured by Allen Machine Works. The sprayer utilized an 8002E spray nozzle, spray pressure of 262 kPa pressure and speed of 1.5 mph (2.4 km/h) to deliver 187 L/Ha. The nozzle height was 46 cm above the plant canopy. The growth stage of the wheat was 1 to 2 leaf. The wheat plants were allowed to thoroughly dry to ensure that none of the spray solution was present when they were moved into a clean pot flat. A known sensitive species, grapes (Vitis labrusca L.) were placed at the opposite end of the flat. All of the pots were covered with a humidome with small ½ inch (1.27 cm) diameter holes cut into the end where the wheat was placed and a small box fan powered with a battery in the other end to pull air across the treated wheat plants and over the top of grapes. Plants were placed into a growth chamber with the temperature set at 40° C. with a 14 hour day and a 10 hour night cycle. A 24 hour exposure period was used after which the sensitive plants were then removed and placed in the greenhouse and evaluated for injury from vapor exposure to the treatments.

SMILES	% Control Barnyardgrass Echinochloa crus-galli [1] [%]	% Control Large Crabgrass Digitaria Sanguinalis [2] [%]	% Control Kochia Kochia scoparia (Kochia Kochia scoparia) [%]	% Control Broadleaf Dock Rumex obtusifolia [3] [%]	% Injury to grapes from vapor exposure [4] [%]
CN(C)Cc1ccccc1.C[C@@H](Oc1ccc(Oc2ccc(C#N)cc2F)cc1)C(=O)O [Compound 4k]	100	85			
CCCCCCN(C)C.O=C(O)COc1ccc(Cl)cc1Cl [Compound 3b]			97	73	
CCCCCCCCN(C)C.O=C(O)COc1ccc(Cl)cc1Cl [Compound 3c]					0
CCN(CC)CC.O=C(O)COc1nc(Cl)c(Cl)cc1Cl [Triclopyr triethylamine (TEA), Triclopyr triethylamine, reference compound]			93	40	
CCCCOCCOC(=O)COc1nc(Cl)c(Cl)cc1Cl [Triclopyr butoxyethylester (BEE), Triclopyr butoxyethylester, reference compound]			95	79	
CCCCOCCOC(=O)COc1ccc(Cl)cc1Cl [2,4-D butoxyethylester (BEE), 2,4-D butoxyethylester, reference compound]			95	96	100
CCCCCCCCN(C)C.C[C@@H](Oc1ccc(Oc2ccc(C#N)cc2F)cc1)C(=O)O [Compound 4i]	100	78			
CCCCCCCCn1ccnc1.O=C(O)COc1ccc(Cl)cc1Cl [Compound 1c]			97	82	
CCCCCCCCn1ccnc1.O=C(O)COc1nc(Cl)c(Cl)cc1Cl [Compound 2c]			92	52	
CNC.O=C(O)COc1ccc(Cl)cc1Cl [2,4-D dimethylamine (DMA), 2,4-D dimethylamine, reference compound]			76	40	78
CC(Oc1ccc(Oc2ccc(C#N)cc2F)cc1)C(=O)O.CCCCCCCCCCCCCCN(C)C (stereo not shown) [Compound 4j]	100	82			
CCCCCCN(C)C.O=C(O)COc1nc(Cl)c(Cl)cc1Cl [Compound 4b]			96	49	
CCCCOC(=O)[C@H](C)Oc1ccc(Oc2ccc(C#N)cc2F)cc1 [cyhalofop Bu-ester, reference compound]	100	92			
CCCCCCCCCCCCCCCCN(C)C.O=C(O)COc1ccc(Cl)cc1Cl [Compound 3g]					0
